# Test system: KRAS PDC multicell spheroid viability
# Assay: Anticancer human tumor 825966-067-R-J1-PDC patient-derived colon carcinoma cell line growth inhibition [KRAS2]
# Details: for IC50: curve of first compound; for viability, T/C: stronger effect = lower value
# How it was run: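 Combination screen of spheroid viability in tumor-cell co-cultures with endothelial (HUVEC) and mesenchymal stem cell stroma. Each agent was tested in half-log dilutions, topping at clinical Cmax or at 10 microM without a known Cmax.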
# [1] = second compound 0.0316 µM, first compound 0.000316 µM
# [2] = second compound 0.0316 µM, first compound 0.001 µM
# [3] = second compound 0.0316 µM, first compound 0.00316 µM
# [4] = second compound 0.0316 µM, first compound 0.01 µM
# [5] = second compound 0.0316 µM, first compound 0.0316 µM
# [6] = second compound 0.1 µM, first compound 0.000316 µM
# [7] = second compound 0.1 µM, first compound 0.001 µM
# [8] = second compound 0.1 µM, first compound 0.00316 µM
# [9] = second compound 0.1 µM, first compound 0.01 µM
# [10] = second compound 0.1 µM, first compound 0.0316 µM
# [11] = second compound 0.316 µM, first compound 0.000316 µM
# [12] = second compound 0.316 µM, first compound 0.001 µM
# [13] = second compound 0.316 µM, first compound 0.00316 µM
# [14] = second compound 0.316 µM, first compound 0.01 µM
# [15] = second compound 0.316 µM, first compound 0.0316 µM
# [16] = second compound 1 µM, first compound 0.000316 µM
# [17] = second compound 1 µM, first compound 0.001 µM
# [18] = second compound 1 µM, first compound 0.00316 µM
# [19] = second compound 1 µM, first compound 0.01 µM
# [20] = second compound 1 µM, first compound 0.0316 µM
# [21] = second compound 3.16 µM, first compound 0.000316 µM
# [22] = second compound 3.16 µM, first compound 0.001 µM
# [23] = second compound 3.16 µM, first compound 0.00316 µM
# [24] = second compound 3.16 µM, first compound 0.01 µM
# [25] = second compound 3.16 µM, first compound 0.0316 µM
# [26] = second compound 0.0316 µM, first compound 0.1 µM
# [27] = second compound 0.1 µM, first compound 0.1 µM
# [28] = second compound 0.316 µM, first compound 0.1 µM
# [29] = second compound 1 µM, first compound 0.1 µM
# [30] = second compound 3.16 µM, first compound 0.1 µM
# 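Further: spheroids exposed to compounds for 7 days.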
# 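Wherever viability, T/C is given: 100% = DMSO vehicle control viability.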
SMILES,IC50 (second compound 0.0316 µM),IC50 (second compound 0.1 µM),IC50 (second compound 0.316 µM),IC50 (second compound 1 µM),IC50 (second compound 3.16 µM),"viability, T/C [1]","viability, T/C [2]","viability, T/C [3]","viability, T/C [4]","viability, T/C [5]","viability, T/C [6]","viability, T/C [7]","viability, T/C [9]","viability, T/C [10]","viability, T/C [14]","viability, T/C [15]","viability, T/C [19]","viability, T/C [20]","viability, T/C [24]","viability, T/C [25]",also measured
CC(=O)Nc1cccc(-n2c(=O)n(C3CC3)c(=O)c3c(Nc4ccc(I)cc4F)n(C)c(=O)c(C)c32)c1 + C=CC(=O)N1CCN(c2nc(OCC3CCCN3C)nc3c2CCN(c2cccc4cccc(C)c24)C3)CC1CC#N,0.0316 µM,> 0.0316 µM,0.0231 µM,> 0.0316 µM,0.00599 µM,94.8%,119%,128%,101%,49.8%,92.6%,97.5%,94.9%,50.5%,92.1%,33.9%,71.4%,53.4%,5.74%,16.1%,"viability, T/C (second compound 0.0316 µM, first compound 0.0001 µM): 92%; viability, T/C (second compound 0.1 µM, first compound 0.0001 µM): 84%; viability, T/C [8]: 111%; viability, T/C (second compound 0.316 µM, first compound 0.0001 µM): 83.6%; viability, T/C [11]: 92.1%; viability, T/C [12]: 96.7%; viability, T/C [13]: 110%; viability, T/C (second compound 1 µM, first compound 0.0001 µM): 110%; viability, T/C [16]: 95%; viability, T/C [17]: 102%; viability, T/C [18]: 106%; viability, T/C (second compound 3.16 µM, first compound 0.0001 µM): 62.2%; viability, T/C [21]: 107%; viability, T/C [22]: 105%; viability, T/C [23]: 121%"
CC(=O)OC12COC1CC(O)C1(C)C(=O)C(O)C3=C(C)C(OC(=O)C(O)C(NC(=O)OC(C)(C)C)c4ccccc4)CC(O)(C(OC(=O)c4ccccc4)C21)C3(C)C (stereo not given) + C=CC(=O)N1CCN(c2nc(OCC3CCCN3C)nc3c2CCN(c2cccc4cccc(C)c24)C3)CC1CC#N,< 0.01 µM,< 0.01 µM,< 0.01 µM,< 0.01 µM,< 0.01 µM,–,–,–,24.8%,28%,–,–,27%,29.6%,23%,21.2%,28.6%,25%,31.7%,23.2%,"viability, T/C [26]: 23.1%; viability, T/C (second compound 0.0316 µM, first compound 0.316 µM): 23.1%; viability, T/C (second compound 0.0316 µM, first compound 1 µM): 24.5%; viability, T/C (second compound 0.0316 µM, first compound 3.16 µM): 40.3%; viability, T/C [27]: 32.1%; viability, T/C (second compound 0.1 µM, first compound 0.316 µM): 22%; viability, T/C (second compound 0.1 µM, first compound 1 µM): 28.6%; viability, T/C (second compound 0.1 µM, first compound 3.16 µM): 35.9%; viability, T/C [28]: 25.4%; viability, T/C (second compound 0.316 µM, first compound 0.316 µM): 24.5%; viability, T/C (second compound 0.316 µM, first compound 1 µM): 26.2%; viability, T/C (second compound 0.316 µM, first compound 3.16 µM): 27.3%; viability, T/C [29]: 30%; viability, T/C (second compound 1 µM, first compound 0.316 µM): 20%; viability, T/C (second compound 1 µM, first compound 1 µM): 27%; viability, T/C (second compound 1 µM, first compound 3.16 µM): 26.1%; viability, T/C [30]: 21.2%; viability, T/C (second compound 3.16 µM, first compound 0.316 µM): 23.8%; viability, T/C (second compound 3.16 µM, first compound 1 µM): 17.2%; viability, T/C (second compound 3.16 µM, first compound 3.16 µM): 29.6%"
CN(C)C/C=C/C(=O)Nc1cc2c(Nc3ccc(F)c(Cl)c3)ncnc2cc1O[C@H]1CCOC1 + C=CC(=O)N1CCN(c2nc(OCC3CCCN3C)nc3c2CCN(c2cccc4cccc(C)c24)C3)CC1CC#N,> 0.1 µM,> 0.1 µM,> 0.1 µM,> 0.1 µM,> 0.1 µM,92%,105%,86%,83.4%,94.5%,114%,107%,94.3%,86.8%,83.8%,77%,98.7%,107%,100%,67.7%,"viability, T/C [26]: 99.7%; viability, T/C [8]: 100%; viability, T/C [27]: 88%; viability, T/C [11]: 100%; viability, T/C [12]: 107%; viability, T/C [13]: 74.8%; viability, T/C [28]: 81.4%; viability, T/C [16]: 94.7%; viability, T/C [17]: 84.9%; viability, T/C [18]: 89.3%; viability, T/C [29]: 77.5%; viability, T/C [21]: 111%; viability, T/C [22]: 83.6%; viability, T/C [23]: 87.5%; viability, T/C [30]: 114%"

# Reference: PubChem BioAssay AID1963865 (Molecular Pharmacology Branch, DTP, NCI, 2024)
